“Also recorded” adds a separate entry of the source. Counter-ions that a name gives are not always drawn.
Legend:
[1] = system: COLO 320DM cells; test: Quantification of c-myc+ (DM-containing) micronuclei in COLO 320DM cells by FISH; type: cell-based, human; conditions: for micronucleation (frequency of c-myc+ micronuclei): COLO 320DM cells treated for 3 days; for micronucleation efficiency at concentrations that severely inhibited S-phase: COLO 320DM cells, 3 days, high drug concentrations
Experimental: (§1) FIGS. 3A and 3B show the effects of various drugs on induction of micronuclei and cell cycle distribution. COLO 320DM cells were treated for 3 days with inhibitors of DNA replication (aphidicolin (“APH”); deferoxamine (“Def”), guanazole (“Gua”); hydroxurea (“HU”); and PALA), repair (coumarin (“Cou”); nicotinamide (“NA”)) or the membrane active agent DMSO at the concentrations indicated. In FIG. 3A, the treated cells were fixed with methanol/acetic acid and hybridized with c-myc cosmid probe. The numbers of micronuclei that were stained brightly with c-myc probe were scored and expressed as “frequency of c-myc^+ micronuclei (%)” relative to the number of interphase nuclei scored (more than 1000 for each point). In FIG. 3B, the cells were pulse-labeled with BrdU (for 30 min) at the end of the drug treatment, and analyzed by flow cytometry as described below to determine the fraction of cells in G1, S, and G2/M.
Micronuclei containing DM sequences in COLO 320DM cells (FIGS. 2 and 3) were detected by preparing chromosome spreads using standard hypotonic swelling conditions (Lawce and Brown (1991)), followed by hybridization with a biotinylated c-myc cosmid probe as described previously (Shimizu, et al. (1996)). Total micronuclei (FIG. 3) were determined by staining chromosome spreads with DAPI (Sigma; 1 μg/ml in VectaShield, Vector Inc.). The adherent cells (WS1, RPE-h and their derivatives) were grown on cover slips, fixed with cold acetone (−20° C. for 5 min) followed by cold methanol (−20° C. for 5 min), re-hydrated with PBS and stained with DAPI (1 μg/ml in VectaShield). The numbers of total or DM-enriched micronuclei were scored using 60× or 100× objectives and Zeiss fluorescence microscope equipped with appropriate epifluorescence filters. The results are expressed as “Frequency of micronuclei (%)” relative to the number of interphase nuclei scored (at least 1000 for each point).

[2] = system: COLO 320DM cells; test: Cell cycle distribution of COLO 320DM cells by BrdU/PI flow cytometry; type: cell-based, human; conditions: COLO 320DM cells treated for 3 days
Experimental: as §1
Cell cycle distribution was analyzed using flow cytometry as described previously (Yin, et al. (1992) and Di Leonardo, et al. (1994)). Cells treated with the indicated concentrations of drugs for the indicated times were labeled with 10 μM BrdU for 30 min. […] Samples were analyzed using a Becton Dickinson FACScan. […] Data was analyzed using Sun Display as described previously (Yin, et al. (1992) and Di Leonardo, et al. (1994)).

[3] = system: human and rodent cell lines; conditions: cited from earlier work
[4] = system: COLO 320DM cells; test: Localization of DMs in interphase nuclei by FISH and confocal microscopy; type: cell-based, human; conditions: 100 μM HU for 3 days
Experimental: Preparation of probe from purified micronuclei was as described (Shimizu, et al. (1996)), except that DNA in the purified micronuclei was directly used for biotin-labeling by using BioPrime DNA Labeling System (Life Technologies Inc. Gaithersburg, Md.). FISH using standard methanol/acetic acid-fixed nuclei was performed as described previously (Shimizu, et al. (1996)). Assessments of DM localization by confocal microscopy required the following procedure to preserve the spherical shape of the nuclei. This protocol, based on that developed for human lymphocytes (Ferguson and Ward (1992) and Vourc'h, et al. (1993)), could not be applied directly to COLO 320DM due to severe nuclear aggregation. The modified procedure involves pelleting 10 ml of COLO 320DM cells by centrifugation at 260×g for 5 min, followed by complete removal of the supernatant. […] The acquired digital images were expressed as pseudocolors, and merged using Adobe Photoshop (Adobe Systems Inc., Mountain View, Calif.).
The locations of DMs in confocal nuclear sections were determined by measuring the distance from each of the hybridized signals to the center of the nucleus using the corresponding nuclear diameter as a unit length. […] The distances from this dot to the center of the nucleus and the nuclear diameter were determined. […] At the same time, the intensity of each signal was measured using an arbitrary unit scale. […]

[5] = system: COLO 320DM cells; test: DM content per cell by competitive PCR amplification; type: cell-based, human; conditions: HU treatment, data not shown
[6] = system: WS1 human diploid fibroblasts; test: Frequency of micronuclei (DAPI) in WS1 normal diploid fibroblasts; type: cell-based; conditions: WS1 cells, drug for 3 days
Experimental: (§2) Wild type (wt) WS1 human diploid fibroblasts, or transformants expressing the neomycin resistance gene (neo) or both neo and the human papilloma virus E6 protein (E6) were generated by retroviral transduction. These cells were cultured in the absence or the presence of HU or PALA at the indicated concentrations for 3 days. […] The number of micronuclei were scored and expressed as the frequency of micronuclei (%) relative to the number of interphase nuclei scored (more than 1000 for each point). In FIG. 7B, cell cycle effects of these drugs were examined as in FIG. 2B. […] In FIG. 7C, progression through S-phase or M-phase was monitored by the incorporation of [^3H]thymidine (closed symbols) or the fraction of mitotic cells determined by microscopic detection of metaphase figures (open symbols). In FIG. 7D, the cells on the cover slips were fixed, stained with DAPI, and the frequencies of micronuclei relative to the number of interphase nuclei were scored. More than 500 nuclei were counted for each point and the results are expressed as mean±S.D for WS1 neo and WS1-E6 cells (3 independent determinations for each strain; the error bars for WS1 neo data points were smaller than the sizes of the symbols). Nuclear budding frequencies were determined on the same slides as used to determine micronucleation index (more than 1000 nuclei for each point). […]

[7] = system: WS1 E6 cells; test: Frequency of micronuclei (DAPI) in WS1 E6 fibroblasts; type: cell-based, human; conditions: WS1 fibroblasts expressing E6, drug for 3 days
Experimental: as §2

[8] = system: WS1 human diploid fibroblasts; test: Cell cycle distribution of WS1 fibroblasts by flow cytometry; type: cell-based; conditions: WS1 cells, drug for 3 days
Experimental: as §2

[9] = system: WS1 E6 cells; test: Cell cycle distribution of WS1 E6 fibroblasts by flow cytometry; type: cell-based, human; conditions: WS1 fibroblasts expressing E6, drug for 3 days
Experimental: as §2

[10] = system: COLO 320DM cells; test: Apoptosis in COLO 320DM cells (TUNEL assay); type: cell-based, human; conditions: COLO 320DM cultures, prolonged incubation
Experimental: TUNEL assay was done according to a previously published procedure (Gavrieli, et al. (1992)) and modified as described below. In brief, COLO 320DM cells were fixed in 2% PFA (10 min at room temperature), and centrifuged onto a glass slide using a cytospin apparatus. The cells were further fixed in cold methanol (−20° C., 5 min) followed by cold acetone (−20° C., 5 min). The slides were rehydrated in PBS, then equilibrated in reaction buffer (200 mM sodium cacodylate, 1 mM MgCl2, 1 mM β-mercaptoethanol, pH 7.2) for 15 min at room temperature. The end-labeling reaction was done by incubating the slides with the reaction buffer containing 10 μM biotin-dUTP (Boehringer Mannheim GmbH, Germany), and 0.3 units/μl of terminal deoxynucleotidyl transferase (Toyobo Co., Osaka, Japan), for 60 min at 37° C. The slides were washed extensively, blocked with 20% FCS, and the incorporated biotin was detected using FITC conjugated streptavidin as in the protocol for FISH (see below). The slides were treated with RNAse A (100 μg/ml 37° C., for 20 min), counterstained with PI, and observed under the conditions used for FISH.

Q: With `O=c1ccc2ccccc2o1` [Coumarin, 1,2-benzopyrone] as the compound, how does the “micronucleation (frequency of c-myc+ micronuclei)” value [1] read?
A: no effect on micronucleation

Q: With `C[S+](C)[O-]` [DMSO] as the compound, how does the “micronucleation (frequency of c-myc+ micronuclei)” value [1] read?
A: increased micronucleation

Q: What about the “cell cycle distribution (fraction of cells in G1, S, G2/M)” value [2] of the same compound?
A: without lengthening S-phase

Q: And the DM copy number ([3]; some tumor cell lines)?
A: reduce DM copy number

Q: For `NC(=O)NO` [HU, hydroxyurea], which “micronucleation (frequency of c-myc+ micronuclei)” value [1] is on record?
A: substantial increases in micronucleation

Q: And the “nuclear position of DMs (peripheral localization)” value [4]?
A: preferentially depleted DMs from the nuclear periphery; also recorded: Very few peripheral DMs were detected

Q: And the “reduction of DM content per cell” value [5]?
A: approximately 3 fold

Q: What about the micronucleation rate [6] of the same compound?
A: not increased

Q: And the micronucleation rate [7]?
A: substantial further increase in micronucleation rate

Q: What about the cell cycle effect [8] of the same compound?
A: did not significantly affect the percentage of WS1 cells in S-phase

Q: What about the “number of cells in S-phase” value [9] of the same compound?
A: significant increase in the number of cells in S-phase

Q: What about the apoptosis [10] of the same compound?
A: apoptotic cells did arise

Q: What about the “loss rate of DMs” value ([3]; human and rodent cell lines) of the same compound?
A: significantly increase the loss rate of DMs

Q: What does the source list for `O=C(O)C[C@H](NC(=O)CP(=O)(O)O)C(=O)O` [PALA, N-phosphonacetyl-L-aspartate]?
A: micronucleation (frequency of c-myc+ micronuclei) [1]: substantial increases in micronucleation; also recorded: induces S-phase micronucleation; micronucleation efficiency at concentrations that severely inhibited S-phase [1]: sharp decrease in micronucleation efficiency; micronucleation rate [6]: not increased; micronucleation rate [7]: substantial further increase in micronucleation rate; cell cycle effect [8]: induced a G1 cell cycle arrest; number of cells in S-phase [9]: significant increase in the number of cells in S-phase

Q: Which “micronucleation (frequency of c-myc+ micronuclei)” value [1] does the source give for `C[C@@]1(CO)[C@H](O)CC[C@@]2(C)[C@H]1CC[C@H]1C[C@@H]3C[C@@]12CC[C@]3(O)CO` [aphidicolin, Aphidicolin] here?
A: substantial increases in micronucleation

Q: For `CC(=O)N(O)CCCCCNC(=O)CCC(=O)N(O)CCCCCNC(=O)CCC(=O)N(O)CCCCCN` [deferoxamine, deferoxamine mesylate], which “micronucleation (frequency of c-myc+ micronuclei)” value [1] is on record?
A: substantial increases in micronucleation

Q: And the “micronucleation efficiency at concentrations that severely inhibited S-phase” value [1]?
A: sharp decrease in micronucleation efficiency

Q: With `Nc1n[nH]c(N)n1` [guanazole, 3,5-diamino-1,2,4-triazole] as the compound, how does the “micronucleation (frequency of c-myc+ micronuclei)” value [1] read?
A: substantial increases in micronucleation

Q: Which “micronucleation (frequency of c-myc+ micronuclei)” value [1] does the source give for `NC(=O)c1cccnc1` [nicotinamide] here?
A: small increase

Q: And the “cell cycle distribution (fraction of cells in G1, S, G2/M)” value [2]?
A: significant increase in the G2 fraction

— patent US6946259B2, “Compositions and methods for treating cells having double minute DNA” (The Salk Institute For Biological Studies, priority 1998, dated 2005)
